From PMC7979524 (Pharmacological research, 2021)

Experiments:
adenosine A2B receptor = target: T1, adenosine A2B receptor (Homo sapiens, UniProt P29275); format: cell-based
T1 sequence (P29275 1-332): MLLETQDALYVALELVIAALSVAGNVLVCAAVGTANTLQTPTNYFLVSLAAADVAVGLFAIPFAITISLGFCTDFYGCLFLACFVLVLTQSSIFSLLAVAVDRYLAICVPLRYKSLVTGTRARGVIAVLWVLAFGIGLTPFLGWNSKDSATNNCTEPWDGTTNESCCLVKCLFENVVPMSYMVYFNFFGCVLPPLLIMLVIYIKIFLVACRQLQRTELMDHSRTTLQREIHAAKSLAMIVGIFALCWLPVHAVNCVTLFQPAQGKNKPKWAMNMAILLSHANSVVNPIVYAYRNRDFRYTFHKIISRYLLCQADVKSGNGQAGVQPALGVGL

adenosine A2A receptor = adenosine A2A receptor (Homo sapiens, UniProt P29274); format: cell-based
Sequence of adenosine A2A receptor (P29274 whole entry): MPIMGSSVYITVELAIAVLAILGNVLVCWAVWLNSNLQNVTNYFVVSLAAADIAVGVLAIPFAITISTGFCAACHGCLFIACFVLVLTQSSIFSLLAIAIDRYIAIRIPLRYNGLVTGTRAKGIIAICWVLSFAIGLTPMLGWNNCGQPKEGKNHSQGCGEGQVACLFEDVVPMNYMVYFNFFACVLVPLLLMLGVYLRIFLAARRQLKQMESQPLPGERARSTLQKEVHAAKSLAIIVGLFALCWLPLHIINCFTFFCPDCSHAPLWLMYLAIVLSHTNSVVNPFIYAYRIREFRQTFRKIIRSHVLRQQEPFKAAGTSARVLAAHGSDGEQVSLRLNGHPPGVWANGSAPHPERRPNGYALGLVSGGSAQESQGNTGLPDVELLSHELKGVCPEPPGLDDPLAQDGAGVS

SMILES: COc1cc(/C=C\C(=O)CC(=O)/C=C/c2ccc(O)c(OC)c2)ccc1O [CTCUR, cis-trans curcumin]
- Ki (adenosine A2B receptor): 6.7 µM
- Ki (adenosine A2A receptor): 5.1 µM
